Tested on: patients with cGVHD
Protocol: All responses were assessed by the investigators.
Reported Adverse Events. […] All-cause mortality data collected during the study were assessed for all enrolled participants. Disease progression related death was not reported as AE.
Number of Participants With Treatment-emergent Adverse Events (TEAEs), and Treatment-emergent Serious Adverse Events (TESAEs). […] TEAEs included both SAEs and non-SAEs. […] Analysis was performed on safety population which included all participants who received at least 1 dose of study medication.

Structure (SMILES): CC(C)NC(=O)COc1cccc(-c2nc(Nc3ccc4[nH]ncc4c3)c3ccccc3n2)c1 [Belumosudil, 2-{3-[4-(1H-indazol-5-ylamino)-2-quinazolinyl]phenoxy}-N-(propan-2-yl) acetamide]
- Urinary retention: Affected/At Risk (%) (Cohort 2 200 mg BID): 1/16 (6.25%)
- Urinary tract infection: # Events (Cohort 2 200 mg BID): 2
- Urinary tract infection: Affected/At Risk (%) (Cohort 2 200 mg BID): 2/16 (12.5%)
- Urinary tract pain: # Events (Cohort 2 200 mg BID): 1
- Urinary tract pain: Affected/At Risk (%) (Cohort 2 200 mg BID): 1/16 (6.25%)
- Urine output decreased: # Events (Cohort 2 200 mg BID): 1
- Urine output decreased: Affected/At Risk (%) (Cohort 2 200 mg BID): 1/16 (6.25%)
- Vascular access complication: # Events (Cohort 2 200 mg BID): 1
- Vascular access complication: Affected/At Risk (%) (Cohort 2 200 mg BID): 1/16 (6.25%)
- Vertigo: # Events (Cohort 2 200 mg BID): 0
- Vertigo: Affected/At Risk (%) (Cohort 2 200 mg BID): 0/16 (0%)
- Vision blurred: # Events (Cohort 2 200 mg BID): 2
- Vision blurred: Affected/At Risk (%) (Cohort 2 200 mg BID): 2/16 (12.5%)
- Vomiting: # Events (Cohort 2 200 mg BID): 3
- Vomiting: Affected/At Risk (%) (Cohort 2 200 mg BID): 3/16 (18.75%)
- Weight decreased: # Events (Cohort 2 200 mg BID): 0
- Weight decreased: Affected/At Risk (%) (Cohort 2 200 mg BID): 0/16 (0%)
- Weight increased: # Events (Cohort 2 200 mg BID): 2
- Weight increased: Affected/At Risk (%) (Cohort 2 200 mg BID): 1/16 (6.25%)
- White blood cell count decreased: # Events (Cohort 2 200 mg BID): 0
- White blood cell count decreased: Affected/At Risk (%) (Cohort 2 200 mg BID): 0/16 (0%)
- Abdominal distension: # Events (Cohort 3 400 mg QD): 1
- Abdominal distension: Affected/At Risk (%) (Cohort 3 400 mg QD): 1/21 (4.76%)
- Abdominal pain upper: # Events (Cohort 3 400 mg QD): 0
- Abdominal pain upper: Affected/At Risk (%) (Cohort 3 400 mg QD): 0/21 (0%)
- Abdominal pain: # Events (Cohort 3 400 mg QD): 6
- Abdominal pain: Affected/At Risk (%) (Cohort 3 400 mg QD): 4/21 (19.05%)
- Actinic keratosis: # Events (Cohort 3 400 mg QD): 1
- Actinic keratosis: Affected/At Risk (%) (Cohort 3 400 mg QD): 1/21 (4.76%)
- Acute kidney injury: # Events (Cohort 3 400 mg QD): 6
- Acute kidney injury: Affected/At Risk (%) (Cohort 3 400 mg QD): 2/21 (9.52%)
- Acute respiratory distress syndrome: # Events (Cohort 3 400 mg QD): 0
- Acute respiratory distress syndrome: Affected/At Risk (%) (Cohort 3 400 mg QD): 0/21 (0%)
- Adrenal insufficiency: # Events (Cohort 3 400 mg QD): 0
- Adrenal insufficiency: Affected/At Risk (%) (Cohort 3 400 mg QD): 0/21 (0%)
- Alanine aminotransferase increased: # Events (Cohort 3 400 mg QD): 2
- Alanine aminotransferase increased: Affected/At Risk (%) (Cohort 3 400 mg QD): 2/21 (9.52%)
- All grade ALT/AST increased, No. (%) (Cohort 3 400 mg QD): 2 (10)
- All grade Cough, No. (%) (Cohort 3 400 mg QD): 7 (33)
- All grade Diarrhea, No. (%) (Cohort 3 400 mg QD): 7 (33)
- All grade Dyspnea, No. (%) (Cohort 3 400 mg QD): 7 (33)
- All grade Fatigue, No. (%) (Cohort 3 400 mg QD): 9 (43)
- All grade Headache, No. (%) (Cohort 3 400 mg QD): 6 (29)
- All grade Hypertension, No. (%) (Cohort 3 400 mg QD): 4 (19)
- All grade Nausea, No. (%) (Cohort 3 400 mg QD): 8 (38)
- All grade Peripheral edema, No. (%) (Cohort 3 400 mg QD): 6 (29)
- All grade URI, No. (%) (Cohort 3 400 mg QD): 7 (33)
- All-Cause Mortality, % (Cohort 3 400 mg QD): (14.29%)
- All-Cause Mortality, Affected/At Risk (Cohort 3 400 mg QD): 3/21
- Anaemia: # Events (Cohort 3 400 mg QD): 0
- Anaemia: Affected/At Risk (%) (Cohort 3 400 mg QD): 0/21 (0%)
- Anal incontinence: # Events (Cohort 3 400 mg QD): 0
- Anal incontinence: Affected/At Risk (%) (Cohort 3 400 mg QD): 0/21 (0%)
- Anxiety: # Events (Cohort 3 400 mg QD): 3
- Anxiety: Affected/At Risk (%) (Cohort 3 400 mg QD): 3/21 (14.29%)
- Any AE, No. (%) (Cohort 3 400 mg QD): 16 (100)
- Arthralgia: # Events (Cohort 3 400 mg QD): 6
- Arthralgia: Affected/At Risk (%) (Cohort 3 400 mg QD): 5/21 (23.81%)
- Aspartate aminotransferase increased: # Events (Cohort 3 400 mg QD): 1
- Aspartate aminotransferase increased: Affected/At Risk (%) (Cohort 3 400 mg QD): 1/21 (4.76%)
- Asthenia: # Events (Cohort 3 400 mg QD): 0
- Asthenia: Affected/At Risk (%) (Cohort 3 400 mg QD): 0/21 (0%)
- Atelectasis: # Events (Cohort 3 400 mg QD): 0
- Atelectasis: Affected/At Risk (%) (Cohort 3 400 mg QD): 0/21 (0%)
- Back pain: # Events (Cohort 3 400 mg QD): 1
- Back pain: Affected/At Risk (%) (Cohort 3 400 mg QD): 1/21 (4.76%)
- Balance disorder: # Events (Cohort 3 400 mg QD): 0
- Balance disorder: Affected/At Risk (%) (Cohort 3 400 mg QD): 0/21 (0%)
- Basal cell carcinoma: # Events (Cohort 3 400 mg QD): 0
- Basal cell carcinoma: Affected/At Risk (%) (Cohort 3 400 mg QD): 0/21 (0%)
- Benign prostatic hyperplasia: # Events (Cohort 3 400 mg QD): 0
- Benign prostatic hyperplasia: Affected/At Risk (%) (Cohort 3 400 mg QD): 0/21 (0%)
- Blepharitis: # Events (Cohort 3 400 mg QD): 2
- Blepharitis: Affected/At Risk (%) (Cohort 3 400 mg QD): 1/21 (4.76%)
- Blister: # Events (Cohort 3 400 mg QD): 1
- Blister: Affected/At Risk (%) (Cohort 3 400 mg QD): 1/21 (4.76%)
- Blood alkaline phosphatase increased: # Events (Cohort 3 400 mg QD): 0
- Blood alkaline phosphatase increased: Affected/At Risk (%) (Cohort 3 400 mg QD): 0/21 (0%)
- Blood chloride decreased: # Events (Cohort 3 400 mg QD): 0
- Blood chloride decreased: Affected/At Risk (%) (Cohort 3 400 mg QD): 0/21 (0%)
- Blood cholesterol increased: # Events (Cohort 3 400 mg QD): 1
- Blood cholesterol increased: Affected/At Risk (%) (Cohort 3 400 mg QD): 1/21 (4.76%)
- Blood creatine increased: # Events (Cohort 3 400 mg QD): 0
- Blood creatine increased: Affected/At Risk (%) (Cohort 3 400 mg QD): 0/21 (0%)
- Blood creatine phosphokinase increased: # Events (Cohort 3 400 mg QD): 0
- Blood creatine phosphokinase increased: Affected/At Risk (%) (Cohort 3 400 mg QD): 0/21 (0%)
- Blood creatinine increased: # Events (Cohort 3 400 mg QD): 2
- Blood creatinine increased: Affected/At Risk (%) (Cohort 3 400 mg QD): 2/21 (9.52%)
- Blood loss anaemia: # Events (Cohort 3 400 mg QD): 0
- Blood loss anaemia: Affected/At Risk (%) (Cohort 3 400 mg QD): 0/21 (0%)
- Bronchial secretion retention: # Events (Cohort 3 400 mg QD): 0
- Bronchial secretion retention: Affected/At Risk (%) (Cohort 3 400 mg QD): 0/21 (0%)
- Bronchitis: # Events (Cohort 3 400 mg QD): 1
- Bronchitis: Affected/At Risk (%) (Cohort 3 400 mg QD): 1/21 (4.76%)
- Bronchoscopy: # Events (Cohort 3 400 mg QD): 0
- Bronchoscopy: Affected/At Risk (%) (Cohort 3 400 mg QD): 0/21 (0%)
- Catheter site haemorrhage: # Events (Cohort 3 400 mg QD): 0
- Catheter site haemorrhage: Affected/At Risk (%) (Cohort 3 400 mg QD): 0/21 (0%)
- Chills: # Events (Cohort 3 400 mg QD): 0
- Chills: Affected/At Risk (%) (Cohort 3 400 mg QD): 0/21 (0%)
- Chronic kidney disease: # Events (Cohort 3 400 mg QD): 0
- Chronic kidney disease: Affected/At Risk (%) (Cohort 3 400 mg QD): 0/21 (0%)
- Conjunctival haemorrhage: # Events (Cohort 3 400 mg QD): 1
- Conjunctival haemorrhage: Affected/At Risk (%) (Cohort 3 400 mg QD): 1/21 (4.76%)
- Conjunctivitis: # Events (Cohort 3 400 mg QD): 3
- Conjunctivitis: Affected/At Risk (%) (Cohort 3 400 mg QD): 3/21 (14.29%)
- Constipation: # Events (Cohort 3 400 mg QD): 4
- Constipation: Affected/At Risk (%) (Cohort 3 400 mg QD): 3/21 (14.29%)
- Contrast media allergy: # Events (Cohort 3 400 mg QD): 0
- Contrast media allergy: Affected/At Risk (%) (Cohort 3 400 mg QD): 0/21 (0%)
- Contusion: # Events (Cohort 3 400 mg QD): 4
- Contusion: Affected/At Risk (%) (Cohort 3 400 mg QD): 3/21 (14.29%)
- Corneal abrasion: # Events (Cohort 3 400 mg QD): 0
- Corneal abrasion: Affected/At Risk (%) (Cohort 3 400 mg QD): 0/21 (0%)
- Corneal infection: # Events (Cohort 3 400 mg QD): 0
- Corneal infection: Affected/At Risk (%) (Cohort 3 400 mg QD): 0/21 (0%)
- Cough: # Events (Cohort 3 400 mg QD): 9
- Cough: Affected/At Risk (%) (Cohort 3 400 mg QD): 7/21 (33.33%)
- Death, No. (%) (Cohort 3 400 mg QD): 2 (10)
- Decreased appetite: # Events (Cohort 3 400 mg QD): 4
- Decreased appetite: Affected/At Risk (%) (Cohort 3 400 mg QD): 4/21 (19.05%)
- Dehydration: # Events (Cohort 3 400 mg QD): 2
- Dehydration: Affected/At Risk (%) (Cohort 3 400 mg QD): 2/21 (9.52%)
- Depression: # Events (Cohort 3 400 mg QD): 3
- Depression: Affected/At Risk (%) (Cohort 3 400 mg QD): 3/21 (14.29%)
- Diarrhoea: # Events (Cohort 3 400 mg QD): 11
- Diarrhoea: Affected/At Risk (%) (Cohort 3 400 mg QD): 7/21 (33.33%)
- Dizziness: # Events (Cohort 3 400 mg QD): 2
- Dizziness: Affected/At Risk (%) (Cohort 3 400 mg QD): 2/21 (9.52%)
- Drug eruption: # Events (Cohort 3 400 mg QD): 0
- Drug eruption: Affected/At Risk (%) (Cohort 3 400 mg QD): 0/21 (0%)
- Drug-related AE, No. (%) (Cohort 3 400 mg QD): 14 (67)
- Drug-related SAE, No. (%) (Cohort 3 400 mg QD): 0
- Dry eye: # Events (Cohort 3 400 mg QD): 2
- Dry eye: Affected/At Risk (%) (Cohort 3 400 mg QD): 2/21 (9.52%)
- Dry skin: # Events (Cohort 3 400 mg QD): 1
- Dry skin: Affected/At Risk (%) (Cohort 3 400 mg QD): 1/21 (4.76%)
- Dyspepsia: # Events (Cohort 3 400 mg QD): 1
- Dyspepsia: Affected/At Risk (%) (Cohort 3 400 mg QD): 1/21 (4.76%)
- Dysphagia: # Events (Cohort 3 400 mg QD): 3
- Dysphagia: Affected/At Risk (%) (Cohort 3 400 mg QD): 2/21 (9.52%)
- Dyspnoea exertional: # Events (Cohort 3 400 mg QD): 0
- Dyspnoea exertional: Affected/At Risk (%) (Cohort 3 400 mg QD): 0/21 (0%)
- Dyspnoea: # Events (Cohort 3 400 mg QD): 6
- Dyspnoea: Affected/At Risk (%) (Cohort 3 400 mg QD): 6/21 (28.57%)
- Embolism: # Events (Cohort 3 400 mg QD): 1
- Embolism: Affected/At Risk (%) (Cohort 3 400 mg QD): 1/21 (4.76%)
- Enamel anomaly: # Events (Cohort 3 400 mg QD): 0
- Enamel anomaly: Affected/At Risk (%) (Cohort 3 400 mg QD): 0/21 (0%)
- Epidural lipomatosis: # Events (Cohort 3 400 mg QD): 0
- Epidural lipomatosis: Affected/At Risk (%) (Cohort 3 400 mg QD): 0/21 (0%)
- Epstein-Barr virus infection: # Events (Cohort 3 400 mg QD): 0
- Epstein-Barr virus infection: Affected/At Risk (%) (Cohort 3 400 mg QD): 0/21 (0%)
- Erectile dysfunction: # Events (Cohort 3 400 mg QD): 0
- Erectile dysfunction: Affected/At Risk (%) (Cohort 3 400 mg QD): 0/21 (0%)
- Eye irritation: # Events (Cohort 3 400 mg QD): 0
- Eye irritation: Affected/At Risk (%) (Cohort 3 400 mg QD): 0/21 (0%)
- Eye pain: # Events (Cohort 3 400 mg QD): 0
- Eye pain: Affected/At Risk (%) (Cohort 3 400 mg QD): 0/21 (0%)
- Eye pruritus: # Events (Cohort 3 400 mg QD): 0
- Eye pruritus: Affected/At Risk (%) (Cohort 3 400 mg QD): 0/21 (0%)
- Fall: # Events (Cohort 3 400 mg QD): 1
- Fall: Affected/At Risk (%) (Cohort 3 400 mg QD): 1/21 (4.76%)
- Fatigue: # Events (Cohort 3 400 mg QD): 14
- Fatigue: Affected/At Risk (%) (Cohort 3 400 mg QD): 10/21 (47.62%)
- Flatulence: # Events (Cohort 3 400 mg QD): 1
- Flatulence: Affected/At Risk (%) (Cohort 3 400 mg QD): 1/21 (4.76%)
- Flushing: # Events (Cohort 3 400 mg QD): 0
- Flushing: Affected/At Risk (%) (Cohort 3 400 mg QD): 0/21 (0%)

— US20260027116A1, “Methods of Treating Chronic Graft-Versus-Host Disease Following Allogeneic Hematopoietic Stem Cell Transplantation” (Kadmon Corporation, LLC, priority 2022, published 2026)
